Results as given in US20140037583A1, “METHODS AND COMPOSITIONS SUITABLE FOR PREVENTING AND TREATING HYPERLEPTINEMIA” (priority 2011, published 2014).

Test system: Leptin mRNA in terminally differentiated canine adipocytes
Experiment: Expression of leptin mRNA in canine adipocytes treated with Equol (quantitative PCR)
Type: cell-based
Settings: 24 hours, n=3
Description: Treatment: Terminally differentiated canine adipocytes were exposed to 200, 25, and 0 uM Equol for 24 hours. Cells were collected for RNA isolation.
RNA Isolation: Treatment cell samples were vortexed and homogenized using a Quiashredder (Qiagen, Valencia, Calif.) column according to manufacturer's directions. The homogenized lysate was collected and 1 equal volume of 64% ethanol was added to it. This mixture was then applied to an RNAqueous™ filter cartridge, (Ambion Inc., Austin, Tex.) 700 uL at a time, and centrifuged for one minute at 10,000 rpm. The cartridge was washed using 700 uL wash solution #1 and 500 uL wash solution #2/3 with centrifugation at 10,000 rpm for one minute for each wash. The filter cartridge was dried by centrifugation (10,000 rpm) for one minute. […] The resulting RNA was DNAse-treated and quantitated in a Beckman DU 640B spectrophotometer (Beckman Coulter, Inc., Brea, Calif.) at 260 nm. Additionally, quantity and quality were assessed using a bioanalyzer (Agilent, Santa Clara, Calif.) according to manufacturer's directions.
Quantitative PCR: All samples were run singularly against each primer/probe set to determine what standard curve(s) should be used. […] Values were normalized to cyclophilin A (PPIA) levels as determined by quantitative PCR. Inductions were calculated from each of the lowest sample's normalized value. […]

## Oc1ccc([C@H]2COc3cc(O)ccc3C2)cc1 [Equol]
25 uM Equol
  Leptin mRNA expression (normalized to cyclophilin A, induction relative to lowest sample): 2.58
200 uM Equol
  Leptin mRNA expression (normalized to cyclophilin A, induction relative to lowest sample): 1.40
